# Patent publication US8362008B2 (The University Of Edinburgh, priority 2007, dated 2013)
# pIC50: −log10 of the molar value.
# Molecular target: T1, human 11β-HSD1 enzyme (Homo sapiens, UniProt P28845)
# T1 construct: stably transfected with a construct containing the full-length gene coding for the human 11β-HSD1 enzyme; expressed in transfected cells; host or cells: HEK293 (HEK293/11β-HSD1 cells)
# Test: Cellular in vitro 11β-HSD1 enzyme inhibition assay (SPA, HEK293/11β-HSD1 cells)
# Type: cell-based
# Conditions: HEK293, less than or equal to 1000 nM (1 μM)
# Experimental: Cellular In Vitro 11β-HSD1 Enzyme Inhibition Assay
# Compounds were assessed by a Scintillation Proximity Assay (SPA) performed according to the following protocol:
# HEK293 cells were stably transfected with a construct containing the full-length gene coding for the human 11β-HSD1 enzyme to create HEK293/11β-HSD1 cells. Cells were routinely cultured in DMEM containing 10% calf foetal serum, 1% glutamine, and 1% penicillin and streptomycin. Prior to assay, cells were plated at 2×10^4 cells/well in 96-well poly-D-Lys coated flat-bottomed microplates and incubated in 5% CO2, 95% O2 at 37° C. for 24 hours. The media in each well was removed immediately before assay.
# Compounds to be tested were dissolved in DMSO at 10 mM and serially diluted into water containing 10% DMSO. Diluted compounds at a volume of 10 μL were added to wells of a 96-well V-bottomed microplate. […] This solution (100 μL/well) was transferred to the plate containing the cells. The plate was then incubated in 5% CO2, 95% O2 at 37° C. for 2 hours.
# Following this incubation, 50 μL of the assay solution was transferred to each well of a 96-well scintillation microplate. A mixture consisting of anti-mouse YSi SPA beads, pre-mixed with anti-cortisol antibody in assay buffer (50 mM Tris.HCl, pH 7.0; 300 mM NaCl; 1 mM EDTA, 5% glycerol) was prepared and 50 μL added to each well of the scintillation microplate. An adhesive strip was applied to the microplate and the plate gently shaken for at least 2 hours at room temperature, and then spun briefly on a low speed centrifuge. The plate was read on a scintillation counter suitable for 96-well microplates. For the calculation of percentage inhibition, a series of wells were added to the plate that represented the assay maximum and the assay minimum: one set that contained substrate without cells (mimimum) and another set that contained substrate and cells without any compound (maximum).
# The calculation of median inhibitory concentration (IC50) values for the compounds was performed using GraphPad Prism® software. Dose-response curves for each compound were plotted as fractional inhibition and data fitted to the four parameter logistic equation.
# T1 sequence (P28845 whole entry): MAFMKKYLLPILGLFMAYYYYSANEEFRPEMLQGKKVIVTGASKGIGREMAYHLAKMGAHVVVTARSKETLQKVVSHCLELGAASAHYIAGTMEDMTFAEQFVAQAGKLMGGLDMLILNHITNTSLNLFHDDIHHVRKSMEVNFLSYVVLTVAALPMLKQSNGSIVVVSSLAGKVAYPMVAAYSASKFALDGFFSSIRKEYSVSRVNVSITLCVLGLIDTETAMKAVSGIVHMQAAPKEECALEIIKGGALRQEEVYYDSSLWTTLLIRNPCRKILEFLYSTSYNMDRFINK
row,Structure (SMILES),pIC50
1,"O=C(c1csc(C2CCNCC2)c1)N1CCC[C@@H]2CCCC[C@@H]21 (single isomer, unassigned) [CC-159, cis-(octahydro-quinolin-1-yl)-(5-piperidin-4-yl-thiophen-3-yl)-methanone]",≥ 6.00
2,"CCc1cc(C(=O)N2CCCCC2)c(Br)s1 [AA-002, (2-Bromo-5-ethyl-thiophen-3-yl)-piperidin-1-yl-methanone]",≥ 6.00
3,CCc1cc(C(=O)N2CCCCCC2)c(Cl)s1 [AA-004],≥ 6.00
4,CCc1cc(C(=O)N2CCCCCC2)c(Br)s1 [AA-005],≥ 6.00
5,CCc1cc(C(=O)N2CCCC3CCCCC32)cs1 (stereo not shown) [AA-009],≥ 6.00
6,CCCCCc1cc(C(=O)N2CCCC3CCCCC32)cs1 (stereo not shown) [AA-011],≥ 6.00
7,CCc1cc(C(=O)N2CC3CC4CC(C3)CC2C4)cs1 [AA-015],≥ 6.00
8,CCc1cc(C(=O)N2C3CCCC2CC3)cs1 [AA-016],≥ 6.00
9,CC1(C)CC2CC(C)(CN2C(=O)c2csc(CC(F)(F)F)c2)C1 (stereo not shown) [AA-018],≥ 6.00
10,CCc1cc(C(=O)N2CCCC(C)(C)CC2)cs1 [AA-019],≥ 6.00
11,CCc1cc(C(=O)N2CCCCC2c2ccccc2)cs1 (stereo not shown) [AA-021],≥ 6.00
12,COCc1cc(C(=O)N2CC3(C)CC2CC(C)(C)C3)cs1 (stereo not shown) [BB-006],≥ 6.00
13,O=C(c1csc(C2CCOCC2)c1)N1CCCCCC1 [CC-004],≥ 6.00
14,"O=C(c1cc(C2CCOCC2)sc1Cl)N1CCCCCC1 [CC-006, Azepan-1-yl-[2-chloro-5-(tetrahydro-pyran-4-yl)-thiophen-3-yl]methanone]",≥ 6.00
15,"O=C(OCc1ccccc1)N1CCC(c2cc(C(=O)N3CCCCCC3)cs2)CC1 [CC-007, 4-[4-(Azepane-1-carbonyl)-thiophen-2-yl]-piperidine-1-carboxylic acid benzyl ester]",≥ 6.00
16,"O=C(c1csc(C2CCNCC2)c1)N1CCCCC1c1ccccc1 (stereo not shown) [CC-017, (2-Phenyl-piperidin-1-yl)-(5-piperidin-4-yl-thiophen-3-yl)methanone]",≥ 6.00
17,CC1(C)CCCCN(C(=O)c2csc(C3CCOCC3)c2)C1 [CC-022],≥ 6.00
18,O=C(c1csc(C2CCOCC2)c1)N1CCCC2CCCCC21 (stereo not shown) [CC-028],≥ 6.00
19,O=C(c1cc(C2CCOCC2)sc1Cl)N1CCCC2CCCCC21 (stereo not shown) [CC-030],≥ 6.00
20,O=C(c1csc(C2=CCNCC2)c1)N1CCCC2CCCCC21 (stereo not shown) [CC-047],≥ 6.00
21,O=C(CO)N1CCC(c2cc(C(=O)N3CCCC4CCCCC43)cs2)CC1 (stereo not shown) [CC-054],≥ 6.00
22,CC1(C)CC2CC(C)(CN2C(=O)c2csc(C3CCOCC3)c2)C1 (stereo not shown) [CC-069],≥ 6.00

# Second part, the molecule after the results:
row,pIC50,Structure (SMILES)
1,≥ 6.00,"O=C(c1csc(C2CCOCC2)c1)N1CCC[C@@H]2CCCC[C@@H]21 (single isomer, unassigned) [CC-140, cis-(octahydro-quinolin-1-yl)-[5-(tetrahydro-pyran-4-yl)-thiophen-3-yl]-methanone]"
2,≥ 6.00,CCc1cc(C(=O)N2CCCC3CCCCC32)c(Cl)s1 (stereo not shown) [AA-013]
3,≥ 6.00,CCCCCc1cc(C(=O)N2CC3(C)CC2CC(C)(C)C3)cs1 (stereo not shown) [AA-017]
4,≥ 6.00,"Cc1ccccc1OCc1cc(C(=O)N2CCCCC2)cs1 [BB-002, Piperidin-1-yl-(5-o-tolyloxymethyl-thiophen-3-yl)-methanone]"
5,≥ 6.00,CC1(C)CCCN(C(=O)c2cc(C3CCOCC3)sc2Cl)C1 [CC-005]
6,≥ 6.00,CC1(C)CCCN(C(=O)c2csc(C3CCOCC3)c2)CC1 [CC-021]
7,≥ 6.00,CC(=O)N1CCC(c2cc(C(=O)N3CCCCC(C)(C)C3)cs2)CC1 [CC-026]
8,≥ 6.00,O=C(c1cc(C2CCOCC2)sc1Cl)N1CCC2CCCCC2C1 (stereo not shown) [CC-031]
9,≥ 6.00,O=C(c1csc(C2CCNCC2)c1)N1CCCC2CCCCC21 (stereo not shown) [CC-040]
10,≥ 6.00,O=C1CCCN1c1cc(C(=O)N2CCCC3CCCCC32)cs1 (stereo not shown) [CC-049]
11,≥ 6.00,O=C1COCCN1c1cc(C(=O)N2CCCC3CCCCC32)cs1 (stereo not shown) [CC-050]
12,≥ 6.00,O=C(c1ccno1)N1CCC(c2cc(C(=O)N3CCCC4CCCCC43)cs2)CC1 (stereo not shown) [CC-051]
13,≥ 6.00,O=C(CN1CCOCC1)N1CCC(c2cc(C(=O)N3CCCC4CCCCC43)cs2)CC1 (stereo not shown) [CC-059]

# Same assay, conditions: HEK293, more than 1000 nM (1.0 μM) and less than or equal to 30 μM
row,Structure (SMILES),pIC50
1,CCc1cc(C(=O)N2CCCC(F)(F)CC2)cs1 [AA-020],4.52 to 6.00
2,O=C(c1csc(COc2ccccc2)c1)N1CCCCC1 [BB-001],4.52 to 6.00
3,O=C(c1csc(COc2ccc(-n3cncn3)cc2)c1)N1CCCCC1 [BB-004],4.52 to 6.00
4,COCc1cc(C(=O)N2CCCCCC2)cs1 [BB-005],4.52 to 6.00
5,"O=C(c1csc(C2CCOCC2)c1)N1CCCCC1 [CC-001, Piperidin-1-yl-[5-(tetrahydro-pyran-4-yl)-thiophen-3-yl]-methanone]",4.52 to 6.00
6,"CC1(C)CCCN(C(=O)c2csc(N3CCOCC3)c2)C1 [CC-010, (3,3-Dimethyl-piperidin-1-yl)-(5-morpholin-4-yl-thiophen-3-yl)-methanone]",4.52 to 6.00
7,CC1(C)CCCN(C(=O)c2csc(C3CCCNC3)c2)C1 (stereo not shown) [CC-014],4.52 to 6.00
8,"O=C(c1csc(C2CCCNC2)c1)N1CCCCCC1 (stereo not shown) [CC-015, Azepan-1-yl-(5-piperidin-3-yl-thiophen-3-yl)-methanone]",4.52 to 6.00
9,O=C(c1csc(C2CCNCC2)c1)N1CCCC(c2ccccc2)C1 (stereo not shown) [CC-018],4.52 to 6.00
10,C[C@@H]1CN(C(=O)c2csc(C3CCNCC3)c2)C[C@H](C)O1 [CC-019],4.52 to 6.00
11,O=C(c1csc(C2CCNCC2)c1)N1CCCC1c1ccccc1 (stereo not shown) [CC-020],4.52 to 6.00
12,CC1(C)CCCCN(C(=O)c2csc(C3CCNCC3)c2)C1 [CC-024],4.52 to 6.00
13,O=C(c1csc(C2CCOCC2)c1)N1CCC2CCCCC2C1 (stereo not shown) [CC-029],4.52 to 6.00
14,O=C(OCc1ccccc1)N1CCC(c2cc(C(=O)N3CCCC4CCCCC43)cs2)CC1 (stereo not shown) [CC-032],4.52 to 6.00
15,CC(=O)N1CCC(c2cc(C(=O)N3CCCC4CCCCC43)cs2)CC1 (stereo not shown) [CC-036],4.52 to 6.00
16,CC(=O)N1CCC(c2cc(C(=O)N3CCN4CCCCC4C3)cs2)CC1 (stereo not shown) [CC-037],4.52 to 6.00
17,O=C(c1csc(C2CCNCC2)c1)N1CCN2CCC[C@H]2C1 [CC-041],4.52 to 6.00
18,O=C(c1ccno1)N1CCC(c2cc(C(=O)N3CCCC4CCCCC43)cs2)CC1 (stereo not shown) [CC-052],4.52 to 6.00
19,CN(C)CC(=O)N1CCC(c2cc(C(=O)N3CCCC4CCCCC43)cs2)CC1 (stereo not shown) [CC-063],4.52 to 6.00
20,CC(C)OC(=O)N1CCC(c2cc(C(=O)N3CCCC4CCCCC43)cs2)CC1 (stereo not shown) [CC-067],4.52 to 6.00

# The next lines start with the values.
row,pIC50,Structure (SMILES)
1,4.52 to 6.00,"CCc1cc(C(=O)N2CCCCC2)c(C#N)s1 [AA-003, 5-Ethyl-3-(piperidine-1-carbonyl)-thiophene-2-carbonitrile]"
2,4.52 to 6.00,CCc1cc(C(=O)N2CCCCCC2)c(C#N)s1 [AA-006]
3,4.52 to 6.00,CCc1cc(C(=O)N2CCC(c3ccccc3)C2)c(Cl)s1 (stereo not shown) [AA-008]
4,4.52 to 6.00,CCc1cc(C(=O)N2CCC3CCCCC3C2)cs1 (stereo not shown) [AA-010]
5,4.52 to 6.00,O=C(c1csc(COc2ccc(-n3ccnc3)cc2)c1)N1CCCCC1 [BB-003]
6,4.52 to 6.00,CC1CCCCN1C(=O)c1csc(C2CCOCC2)c1 (stereo not shown) [CC-002]
7,4.52 to 6.00,"O=C(c1csc(C2CCNCC2)c1)N1CCCCCC1 [CC-008, Azepan-1-yl-(5-piperidin-4-yl-thiophen-3-yl)-methanone]"
8,4.52 to 6.00,"O=C(OCc1ccccc1)N1CCC(c2cc(C(=O)N3CCCCCC3)c(Cl)s2)CC1 [CC-009, 4-[4-(Azepane-1-carbonyl)-5-chloro-thiophen-2-yl]-piperidine-1-carboxylic acid benzyl ester]"
9,4.52 to 6.00,CC1(C)CCN(C(=O)c2csc(C3CCOCC3)c2)CC1 [CC-011]
10,4.52 to 6.00,O=C(c1csc(C2CCNCC2)c1)N1CCCCC1c1ccccn1 (stereo not shown) [CC-012]
11,4.52 to 6.00,CC1(C)CCCN(C(=O)c2csc(C3CCNCC3)c2)C1 [CC-013]
12,4.52 to 6.00,"CC(=O)N1CC=C(c2cc(C(=O)N3CCCCCC3)cs2)CC1 [CC-016, 1-{4-[4-(Azepane-1-carbonyl)-thiophen-2-yl]-3,6-dihydro-2H-pyridin-1-yl}-ethanone]"
13,4.52 to 6.00,"CC1(C)CCCN(C(=O)c2csc(C3CCNCC3)c2)CC1 [CC-023, (4,4-dimethyl-azepan-1-yl)-(5-piperidin-4-yl-thiophen-3-yl)-methanone]"
14,4.52 to 6.00,O=C(c1csc(C2CCNCC2)c1)N1CCN2CCCCC2C1 (stereo not shown) [CC-042]
15,4.52 to 6.00,O=C(c1csc(C2CCCNC2)c1)N1CCCC2CCCCC21 (stereo not shown) [CC-043]
16,4.52 to 6.00,CNCC(=O)N1CCC(c2cc(C(=O)N3CCCC4CCCCC43)cs2)CC1 (stereo not shown) [CC-056]
17,4.52 to 6.00,O=C(CN1CCOCC1)N1CCC(c2cc(C(=O)N3CCCC4CCCCC43)cs2)CC1 (stereo not shown) [CC-060]
18,4.52 to 6.00,O=C(CCN1CCCCC1)N1CCC(c2cc(C(=O)N3CCCC4CCCCC43)cs2)CC1 (stereo not shown) [CC-062]
